{"source": "patent US9320750B2", "about": "“Compositions and methods of treatment of drug resistant cancers” (priority 2012, dated 2016)", "key": {"BT-20 xenograft tumors": {"system": "BT-20 xenograft tumors", "assay": "Xenograft tumor model"}, "BT-20 cells [1]": {"system": "BT-20 cells", "procedure": "(§1) 1×10^6 cells were seeded in a 10 cm dish 24 hr prior to the experiment. […] Following the treatment time course, cells were washed in PBS, trypsinized, and fixed in 4% paraformaldehyde (PFA) in PBS for 15 min at room temperature (RT), then resuspended in ice cold methanol and incubated overnight at −20° C. Cells were then washed twice in PBS+0.1% Tween and stained with antibodies directed against cleaved forms of caspase-3 and PARP (BD PharMingen). […] Data reported are always percent cleaved-caspase-3/cleaved-PARP double positive cells.\n(§2) Following the treatment time course, cells were washed, trypsinized, fixed in 4% paraformaldehyde for 15 min at room temperature, resuspended in ice-cold methanol, and incubated overnight at −20° C. Cells were then washed twice in PBS-Tween and stained with antibodies against cleaved caspase-3 and poly(ADP-ribose) polymerase (PARP). Secondary Alexa-conjugated anti-bodies were used for visualization in a BD FacsCaliber flow cytometer."}, "BT-474 cells": {"system": "BT-474 cells", "assay": "Apoptosis, cleaved caspase-3/cleaved PARP flow cytometry", "format": "cell-based, human", "procedure": "(§3) 1×10^6 cells were seeded in a 10 cm dish 24 hr prior to the experiment. […]. Following the treatment time course, cells were washed in PBS, trypsinized, and fixed in 4% paraformaldehyde (PFA) in PBS for 15 min at room temperature (RT), then resuspended in ice cold methanol and incubated overnight at −20° C. Cells were then washed twice in PBS+0.1% Tween and stained with antibodies directed against cleaved forms of caspase-3 and PARP (BD PharMingen). Secondary antibodies conjugated to Alexa dyes (488 and 647) were used for visualization in a BD FacsCaliber flow cytometer (Molecular Probes). Data reported are always percent cleaved-caspase-3/cleaved-PARP double positive cells.\nas §2"}, "MDA-MB-453 cells [2]": {"system": "MDA-MB-453 cells", "assay": "Apoptosis, cleaved caspase-3/cleaved PARP flow cytometry", "format": "cell-based, human", "procedure": "as §3, §2"}, "Hs578Bst": {"system": "Hs578Bst", "assay": "Apoptosis, cleaved caspase-3/cleaved PARP flow cytometry", "format": "cell-based, human", "details": "erlotinib-doxorubicin combinations; normal peripheral breast tissue line", "procedure": "as §1, §2"}, "[3]": {"system": "ten triple-negative cell lines", "assay": "Apoptosis across panel of triple-negative cell lines", "format": "cell-based, human", "details": "time-staggered ERL→DOX", "procedure": "as §3, §2"}, "BT-20 cells [4]": {"system": "BT-20 cells", "assay": "RNA expression analysis by microarray", "format": "cell-based, human", "details": "for differentially expressed genes (DEGs): erlotinib alone", "excerpt": "(§4) RNA was extracted from cells using the RNAeasy Kit (QIAGEN). Affymetrix Human U133 Plus 2.0 microarrays were hybridized, labeled, and processed on a fee-for-service basis through the MIT BioMicro Center. Microarray data were obtained from three independent biological replicates per time point and analyzed using linear model for microarray (LIMMA).\n(§5) RNA was extracted from cells using the RNAeasy Kit (QIAGEN). Affymetrix Human U133 Plus 2.0 microarrays were hybridized, labeled and processed on a fee-for-service basis through the BioMicro Center at MIT. Microarray data were obtained from 3 independent biological replicates per time point. Detailed analysis of microarray data was performed with help from the Bioinformatics Core Facility at the Koch Institute at MIT. Expression data can be found in the GEO repository under the accession number GSE30516."}, "MCF7 cells [5]": {"system": "MCF7 cells", "assay": "RNA expression analysis by microarray", "format": "cell-based, human", "details": "erlotinib alone, 24 hr", "excerpt": "as §4, §5"}, "MDA-MB-453 cells [6]": {"system": "MDA-MB-453 cells", "assay": "RNA expression analysis by microarray", "format": "cell-based, human", "details": "erlotinib alone, 24 hr", "excerpt": "as §4, §5"}, "BT-20 cells [7]": {"system": "BT-20 cells", "assay": "Soft agar growth assay", "format": "cell-based, human", "details": "sustained EGFR inhibition with erlotinib", "procedure": "Soft agar growth assays were performed as described by Sapi, E., Flick, M. B., Rodov, S, and Kacinski, B. M. (1998). Ets-2 Transdominant Mutant Abolishes Anchorage-Independent Growth and Macrophage Colony Stimulating Factor-Stimulated Invasion by BT20 Breast Carcinoma Cells. Cancer Res. 58, 1027-1033."}, "caspase-8 [8]": {"system": "caspase-8", "assay": "Caspase-8 cleavage by western blot in TNBC cell lines", "format": "cell-based, human", "details": "TNBC cell lines in which ERL→DOX was synergistic; 8 hr after DOX", "excerpt": "(§6) Cells were lysed in a manner that would allow samples to be used for both western blot analysis and reverse-phase protein microarray. Data generated by quantitative western blot were preprocessed prior to use in computational modeling. Raw signals for each protein target of interest were quantified and background subtracted using the Li-COR Odyssey software and divided by P-actin signals to normalize for loading differences, and then each normalized signal was divided by a reference sample contained on each gel for gel-to-gel normalization."}, "caspase-8 [9]": {"system": "caspase-8", "assay": "Caspase-8 cleavage by western blot in lung cancer cell lines", "format": "cell-based, human", "details": "ERL→DOX in NCI-H1650, A549 and NCI-H358", "excerpt": "as §6"}, "MCF7 cells [10]": {"system": "MCF7 cells", "assay": "Apoptosis, cleaved caspase-3/cleaved PARP flow cytometry"}, "NCI-H1650 cells": {"system": "NCI-H1650 cells", "assay": "Apoptosis, cleaved caspase-3/cleaved PARP flow cytometry", "details": "time-staggered inhibition of EGFR using erlotinib (ERL→DOX)"}, "A549": {"system": "A549", "assay": "Apoptosis, cleaved caspase-3/cleaved PARP flow cytometry", "details": "time-staggered inhibition of EGFR using erlotinib (ERL→DOX)"}, "NCI-H358": {"system": "NCI-H358", "assay": "Apoptosis, cleaved caspase-3/cleaved PARP flow cytometry", "details": "time-staggered inhibition of EGFR using erlotinib (ERL→DOX)"}, "caspase-8 [11]": {"system": "caspase-8", "assay": "Caspase-8 cleavage by western blot in HER2-driven cells", "format": "cell-based, human", "details": "lapatinib/doxorubicin combinations in HER2-driven cells (MDA-MB-453, BT-474)", "excerpt": "as §6"}, "[12]": {"details": "single dose doxorubicin alone, 4 mg/kg intraperitoneally"}, "[13]": {"details": "all temporal combinations of lapatinib and doxorubicin, HER2-overexpressing cells"}, "[14]": {"details": "lapatinib pretreatment (LAP→DOX)"}}, "note": "“Also recorded” adds a separate entry of the source. Where two headings read alike, the source gives them in different places.", "data": [{"smiles": "COc1cccc2c1C(=O)c1c(O)c3c(c(O)c1C2=O)C[C@@](O)(C(=O)CO)C[C@@H]3O[C@H]1C[C@H](N)[C@H](O)[C@H](C)O1", "note": "[doxorubicin]", "values": [{"measurement": "time at which residual tumors reached pretreatment volume", "setting": "BT-20 xenograft tumors; [12]", "value": 14, "unit": "days"}, {"measurement": "tumor volume over the first 3 days after treatment", "setting": "BT-20 xenograft tumors; [12]", "value": "marked reduction in tumor volume"}]}, {"smiles": "C#Cc1cccc(Nc2ncnc3cc(OCCOC)c(OCCOC)cc23)c1", "note": "[erlotinib]", "values": [{"measurement": "increase in cell killing (apoptotic response)", "setting": "BT-20 cells [1]", "value": "≤ 500", "unit": "%"}, {"measurement": "interaction with doxorubicin in killing (Chou-Talalay method)", "setting": "BT-20 cells [1]", "value": "synergistic"}, {"measurement": "killing in combination with camptothecin", "setting": "BT-20 cells [1]", "value": "Synergistic killing"}, {"measurement": "killing in combination with doxorubicin", "setting": "BT-20 cells [1]", "value": "Synergistic killing"}, {"measurement": "effect on apoptosis of adding erlotinib to EGFR knockdown cells", "setting": "BT-20 cells [1]; EGFR siRNA knockdown, delayed doxorubicin", "value": "no additional effect"}, {"measurement": "cell death", "setting": "BT-20 cells [1]; erlotinib alone", "value": "did not cause death"}, {"measurement": "apoptotic stimulus", "setting": "BT-20 cells [1]; erlotinib alone or added at the same time as or shortly before doxorubicin, 10 μM, TNBC (BT-20) cells", "value": "not a potent apoptotic stimulus"}, {"measurement": "effect on sensitivity to doxorubicin", "setting": "BT-474 cells; pretreatment with erlotinib", "value": "desensitization"}, {"measurement": "effect on doxorubicin sensitivity", "setting": "MDA-MB-453 cells [2]; chronic EGFR inhibition, erlotinib pretreatment before doxorubicin", "value": "antagonized doxorubicin sensitivity; also recorded: desensitized"}, {"measurement": "cell death", "setting": "MDA-MB-453 cells [2]; erlotinib alone", "value": "did not cause death"}, {"measurement": "effect of order and timing of drug addition on apoptosis", "setting": "Hs578Bst", "value": "little effect"}, {"measurement": "cell lines with enhanced sensitivity to doxorubicin", "setting": "[3]; sustained EGFR inhibition", "value": "nine of ten"}, {"measurement": "cell lines with synergistic effect", "setting": "[3]; Chou-Talalay combination index", "value": "four of the ten"}, {"measurement": "breast cancer subtype gene expression pattern", "setting": "BT-20 cells [4]; chronic erlotinib treatment", "value": "progressive time-dependent loss of basal-like gene expression with concomitant gain in luminal A-like gene expression"}, {"measurement": "differentially expressed genes (DEGs)", "setting": "BT-20 cells [4]; 30 min", "value": "few"}, {"measurement": "differentially expressed genes (DEGs)", "setting": "BT-20 cells [4]; 6 hr", "value": "more than 1,200"}, {"measurement": "differentially expressed genes (DEGs)", "setting": "BT-20 cells [4]; 24 hr", "value": "more than 2,000"}, {"measurement": "GeneGO cellular networks with significant changes (of 34)", "setting": "BT-20 cells [4]; long-term erlotinib treatment", "value": 16}, {"measurement": "GSEA oncogenic signatures", "setting": "BT-20 cells [4]; sustained erlotinib exposure", "value": "loss of the Ras and MYC oncogenic signatures"}, {"measurement": "genes significantly altered", "setting": "MCF7 cells [5]", "value": "one"}, {"measurement": "differentially expressed genes (DEGs)", "setting": "MDA-MB-453 cells [6]", "value": 235}, {"measurement": "soft agar colony formation", "setting": "BT-20 cells [7]", "value": "potently inhibited"}, {"measurement": "caspase-8 cleavage", "setting": "caspase-8 [8]", "value": "caspase-8 cleavage following sequential administration, but not other drug treatments"}, {"measurement": "caspase-8 cleavage", "setting": "caspase-8 [9]", "value": "associated with caspase-8 cleavage"}, {"measurement": "tumor regrowth", "setting": "BT-20 xenograft tumors; erlotinib 25 mg/kg given 8 hr prior to doxorubicin 4 mg/kg (E→D), i.p., 14 day monitoring", "value": "failed to regrow"}, {"measurement": "initial reduction in tumor size versus doxorubicin alone", "setting": "BT-20 xenograft tumors; erlotinib 25 mg/kg given at the same time as doxorubicin 4 mg/kg (D/E), i.p.", "value": "initial reduction in tumor size was greater"}, {"measurement": "interaction with doxorubicin (Chou-Talalay method)", "setting": "MCF7 cells [10]; all temporal erlotinib-doxorubicin combinations", "value": "merely additive"}, {"measurement": "cell death", "setting": "MCF7 cells [10]; erlotinib alone", "value": "did not cause death"}, {"measurement": "sensitization to killing by doxorubicin", "setting": "NCI-H1650 cells", "value": "dramatic sensitization"}, {"measurement": "sensitization to killing by doxorubicin", "setting": "A549", "value": "dramatic sensitization"}, {"measurement": "sensitization to killing by doxorubicin", "setting": "NCI-H358", "value": "dramatic sensitization"}]}, {"smiles": "CS(=O)(=O)CCNCc1ccc(-c2ccc3ncnc(Nc4ccc(OCc5cccc(F)c5)c(Cl)c4)c3c2)o1", "note": "[lapatinib]", "values": [{"measurement": "killing in combination with camptothecin", "setting": "BT-20 cells [1]; time-staggered pretreatment with EGFR inhibitor, then camptothecin", "value": "Synergistic killing"}, {"measurement": "killing in combination with doxorubicin", "setting": "BT-20 cells [1]; time-staggered pretreatment with EGFR inhibitor, then doxorubicin", "value": "Synergistic killing"}, {"measurement": "interaction with doxorubicin", "setting": "BT-474 cells; [13]", "value": "synergistic"}, {"measurement": "effect on sensitivity to doxorubicin", "setting": "BT-474 cells; [14]", "value": "enhanced sensitivity to doxorubicin"}, {"measurement": "interaction with doxorubicin", "setting": "MDA-MB-453 cells [2]; [13]", "value": "synergistic"}, {"measurement": "effect on sensitivity to doxorubicin", "setting": "MDA-MB-453 cells [2]; [14]", "value": "enhanced sensitivity to doxorubicin"}, {"measurement": "caspase-8 cleavage", "setting": "caspase-8 [11]", "value": "only observed following LAP→DOX treatment"}]}]}
